The supplement of paper PMC10721915
± gives the standard deviation of the averaged measurements.

Compound: COc1ccc([C@@H](O)c2cc(-c3ncnc4cc(N5CCOCC5)ccc34)c(F)cc2Cl)nn1 [peposertib]
Assay: relative cell growth vs untreated control (GI, NCI-DTP normalisation with time-zero) (fraction of control growth); higher = more growth / less inhibition
Settings: treatment time: 120 h
Experimental: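 Cancer cell lines were treated with peposertib (DNA-PK inhibitor) combined with gamma ionizing radiation (0, 2, 3 or 6 Gy) for 120 h, starting 48 h after seeding. Read-out was sulforhodamine B total-protein staining, normalised to untreated control and time-zero wells (NCI-DTP GI convention).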

[1] = peposertib concentration 0.00488 µM, gamma irradiation dose (Gy): 0
[2] = peposertib concentration 0.0195 µM, gamma irradiation dose (Gy): 0
[3] = peposertib concentration 0.0781 µM, gamma irradiation dose (Gy): 0
[4] = peposertib concentration 0.313 µM, gamma irradiation dose (Gy): 0
[5] = peposertib concentration 1.25 µM, gamma irradiation dose (Gy): 0
[6] = peposertib concentration 5 µM, gamma irradiation dose (Gy): 0
[7] = peposertib concentration 0.00488 µM, gamma irradiation dose (Gy): 3
[8] = peposertib concentration 0.0195 µM, gamma irradiation dose (Gy): 3
[9] = peposertib concentration 0.0781 µM, gamma irradiation dose (Gy): 3
[10] = peposertib concentration 0.313 µM, gamma irradiation dose (Gy): 3
[11] = peposertib concentration 1.25 µM, gamma irradiation dose (Gy): 3
[12] = peposertib concentration 5 µM, gamma irradiation dose (Gy): 3

U87MG
relative cell growth [1]: 1.23 | relative cell growth [2]: 1.06 | relative cell growth [3]: 1.02 | relative cell growth [4]: 0.733 | relative cell growth [5]: 0.257 | relative cell growth [6]: 0.116

RD
relative cell growth [1]: 0.929 | relative cell growth [2]: 0.97 | relative cell growth [3]: 0.942 | relative cell growth [4]: 0.94 | relative cell growth [5]: 0.826 | relative cell growth [6]: 0.455

UMUC3
relative cell growth [1]: 1.06 | relative cell growth [2]: 1.06 | relative cell growth [3]: 0.997 | relative cell growth [4]: 0.932 | relative cell growth [5]: 0.819 | relative cell growth [6]: 0.5

HS578T
relative cell growth [1]: 1.01 | relative cell growth [2]: 1.01 | relative cell growth [3]: 1.02 | relative cell growth [4]: 0.947 | relative cell growth [5]: 0.581 | relative cell growth [6]: 0.182

MDAMB231
relative cell growth [1]: 1.11 | relative cell growth [2]: 1.1 | relative cell growth [3]: 1.06 | relative cell growth [4]: 1.04 | relative cell growth [5]: 0.995 | relative cell growth [6]: 0.84

OVCAR4
relative cell growth [1]: 1.03 | relative cell growth [2]: 1.01 | relative cell growth [3]: 0.983 | relative cell growth [4]: 0.875 | relative cell growth [5]: 0.858 | relative cell growth [6]: 0.633

NCIH292
relative cell growth [1]: 0.959 ± 0.031 | relative cell growth [7]: 0.526 | relative cell growth [2]: 1.017 ± 0.0086 | relative cell growth [8]: 0.511 | relative cell growth [3]: 0.924 ± 0.039 | relative cell growth [9]: 0.357 | relative cell growth [4]: 0.684 ± 0.078 | relative cell growth [10]: 0.21 | relative cell growth [5]: 0.33 ± 0.064 | relative cell growth [11]: 0.0579 | relative cell growth [6]: 0.00769 ± 0.042 | relative cell growth [12]: -0.0162

EJ28
relative cell growth [1]: 1.05 | relative cell growth [2]: 1.02 | relative cell growth [3]: 1.02 | relative cell growth [4]: 0.945 | relative cell growth [5]: 0.824 | relative cell growth [6]: 0.554

MT3
relative cell growth [1]: 0.994 | relative cell growth [2]: 0.98 | relative cell growth [3]: 0.951 | relative cell growth [4]: 0.828 | relative cell growth [5]: 0.415 | relative cell growth [6]: 0.0961

U2OS
relative cell growth [1]: 1.05 | relative cell growth [2]: 1.04 | relative cell growth [3]: 1 | relative cell growth [4]: 0.966 | relative cell growth [5]: 0.815 | relative cell growth [6]: 0.529

DU145
relative cell growth [1]: 0.999 | relative cell growth [2]: 0.996 | relative cell growth [3]: 0.96 | relative cell growth [4]: 0.874 | relative cell growth [5]: 0.618 | relative cell growth [6]: 0.287

LOVO
relative cell growth [1]: 1.01 ± 0.055 | relative cell growth [7]: 0.384 | relative cell growth [2]: 0.946 ± 0.026 | relative cell growth [8]: 0.357 | relative cell growth [3]: 0.83 ± 0.068 | relative cell growth [9]: 0.28 | relative cell growth [4]: 0.617 ± 0.11 | relative cell growth [10]: 0.186 | relative cell growth [5]: 0.348 ± 0.083 | relative cell growth [11]: 0.0588 | relative cell growth [6]: 0.16 ± 0.064 | relative cell growth [12]: 0.00966

TE671
relative cell growth [1]: 0.999 | relative cell growth [2]: 0.999 | relative cell growth [3]: 0.989 | relative cell growth [4]: 0.929 | relative cell growth [5]: 0.736 | relative cell growth [6]: 0.243

HT29
relative cell growth [1]: 0.978 ± 0.029 | relative cell growth [7]: 0.885 | relative cell growth [2]: 0.9825 ± 0.0091 | relative cell growth [8]: 0.857 | relative cell growth [3]: 0.974 ± 0.023 | relative cell growth [9]: 0.642 | relative cell growth [4]: 0.906 ± 0.03 | relative cell growth [10]: 0.152 | relative cell growth [5]: 0.658 ± 0.021 | relative cell growth [11]: 0.0553 | relative cell growth [6]: 0.252 ± 0.0096 | relative cell growth [12]: 0.0433

PC3
relative cell growth [1]: 1.04 | relative cell growth [2]: 1 | relative cell growth [3]: 0.971 | relative cell growth [4]: 0.781 | relative cell growth [5]: 0.532 | relative cell growth [6]: 0.262

MIAPACA2
relative cell growth [1]: 1.05 ± 0.024 | relative cell growth [7]: 0.592 | relative cell growth [2]: 1.07 ± 0.072 | relative cell growth [8]: 0.546 | relative cell growth [3]: 1.01 ± 0.022 | relative cell growth [9]: 0.286 | relative cell growth [4]: 0.991 ± 0.07 | relative cell growth [10]: 0.086 | relative cell growth [5]: 0.891 ± 0.18 | relative cell growth [11]: 0.0368 | relative cell growth [6]: 0.611 ± 0.18 | relative cell growth [12]: 0.0246

SW620
relative cell growth [1]: 1.03 ± 0.033 | relative cell growth [7]: 0.3 | relative cell growth [2]: 1.01 ± 0.048 | relative cell growth [8]: 0.245 | relative cell growth [3]: 0.992 ± 0.054 | relative cell growth [9]: 0.131 | relative cell growth [4]: 0.94 ± 0.046 | relative cell growth [10]: 0.044 | relative cell growth [5]: 0.833 ± 0.15 | relative cell growth [11]: 0.0135 | relative cell growth [6]: 0.675 ± 0.2 | relative cell growth [12]: 0.0174

SAOS2
relative cell growth [1]: 0.945 | relative cell growth [2]: 0.983 | relative cell growth [3]: 0.946 | relative cell growth [4]: 0.82 | relative cell growth [5]: 0.458 | relative cell growth [6]: 0.0757

T24
relative cell growth [1]: 1.01 | relative cell growth [2]: 0.992 | relative cell growth [3]: 0.979 | relative cell growth [4]: 0.927 | relative cell growth [5]: 0.838 | relative cell growth [6]: 0.748

SUDHL6
relative cell growth [1]: 0.943 | relative cell growth [2]: 0.915 | relative cell growth [3]: 0.816 | relative cell growth [4]: 0.254 | relative cell growth [5]: -0.0283 | relative cell growth [6]: -0.0413

HS729
relative cell growth [1]: 1.05 | relative cell growth [2]: 1.06 | relative cell growth [3]: 1.02 | relative cell growth [4]: 0.867 | relative cell growth [5]: 0.716 | relative cell growth [6]: 0.422

COLO205
relative cell growth [1]: 0.984 ± 0.071 | relative cell growth [7]: 0.413 | relative cell growth [2]: 0.996 ± 0.039 | relative cell growth [8]: 0.367 | relative cell growth [3]: 1.01 ± 0.044 | relative cell growth [9]: 0.203 | relative cell growth [4]: 0.969 ± 0.029 | relative cell growth [10]: 0.0736 | relative cell growth [5]: 0.7949 ± 0.007 | relative cell growth [11]: 0.0589 | relative cell growth [6]: 0.351 ± 0.04 | relative cell growth [12]: 0.0686

MDAMB435
relative cell growth [1]: 0.989 | relative cell growth [2]: 1.03 | relative cell growth [3]: 1.02 | relative cell growth [4]: 0.924 | relative cell growth [5]: 0.721 | relative cell growth [6]: 0.207
